What was measured:
Lac4 = conditions: 100 mM acetate, 2.5 mM copper sulfate, O2; listed optimum pH 4.0, 55 °C
Lac5-6 = tested on: T1, Lac5-6; conditions: 100 mM acetate, 2.5 mM copper sulfate, O2; listed optimum pH 4.0, 55 °C
T1 construct: gene Lac5 (GenBank PP987286)

Lac1 = conditions: 100 mM acetate, 2.5 mM copper sulfate, O2; listed optimum pH 5.0, 55 °C
Lac9 = conditions: 100 mM acetate, 2.5 mM copper sulfate, O2; listed optimum pH 4.8, 55 °C
Lac5 = conditions: 100 mM acetate, 2.5 mM copper sulfate, O2; listed optimum pH 4.0, 50 °C
Lac3 = conditions: 100 mM acetate, 2.5 mM copper sulfate, O2; listed optimum pH 4.6, 60 °C

Compound `CCn1c(=NN=c2sc3cc(S(=O)(=O)O)ccc3n2CC)sc2cc(S(=O)(=O)O)ccc21` [ABTS, 2,2′‐azinobis(3‑ethylbenzo‐6‑thiazolinesulfonic acid)] has a Km (Lac4) of 426 µM, a Km (Lac5-6) of 55 µM and a Km (Lac1) of 112 µM. The Km (Lac9) was 101 µM, the Km (Lac5) was 63 µM and the Km (Lac3) was 99 µM.

Source: article PMC12226424, “Enhanced discovery of bacterial laccase‐like multicopper oxidase through computer simulation and metagenomic analysis of industrial wastewater” (FEBS Open Bio, 2025)
